Laboratory results published in US20120277197A1, “TIGECYCLINE FORMULATIONS” (WYETH, priority 2008, published 2012).

Assay: Effect of pH on stability of tigecycline 0.50 mg/ml in Normal Saline, in a flask at 25° C.
Type: physicochemical
Procedure: The effect of pH on the stability of tigecycline formulations having a concentration of 0.50 mg tigecycline/ml in a Normal Saline solution was studied by analyzing the variation of tigecycline content, total impurity content, and the concentration of tigecycline epimer at different pH values, either in the presence of air or under an atmosphere having an oxygen content of less than 1 ppm, in a flask at 25° C.

[1] = pH 3, 0 h, in the presence of air
[2] = pH 3, 8 h, in the presence of air
[3] = pH 3, 24 h, in the presence of air
[4] = pH 3, 72 h, in the presence of air
[5] = pH 3.5, 0 h, in the presence of air
[6] = pH 3.5, 8 h, in the presence of air
[7] = pH 3.5, 24 h, in the presence of air
[8] = pH 3.5, 72 h, in the presence of air
[9] = pH 4.0, 0 h, in the presence of air
[10] = pH 4.0, 24 h, in the presence of air
[11] = pH 4.0, 72 h, in the presence of air
[12] = pH 4.5, 0 h, in the presence of air
[13] = pH 4.5, 8 h, in the presence of air
[14] = pH 4.5, 24 h, in the presence of air

CN(C)c1cc(NC(=O)CNC(C)(C)C)c(O)c2c1C[C@H]1C[C@H]3[C@H](N(C)C)C(O)=C(C(N)=O)C(=O)[C@@]3(O)C(O)=C1C2=O [tigecycline, Tigecycline]
pH at which the solution is most stable, based on total impurity content and tigecycline content (in the presence of air): 4.5-5.0
pH at which the solution is most stable (oxygen <1 ppm): 4.5-6.0
Total impurity content as a % of initial weight of tigecycline [1]: 0.36%
Total tigecycline epimer content as a % of initial weight of tigecycline [1]: 0.19%
Percentage of tigecycline remaining (pH 3.0, 0 h, in the presence of air): 100%
Total impurity content as a % of initial weight of tigecycline (pH 3, 0 h, oxygen <1 ppm): 0.258%
Total tigecycline epimer content as a % of initial weight of tigecycline (pH 3, 0 h, oxygen <1 ppm): 0.152%
Percentage of tigecycline remaining (pH 3.0, 0 h, oxygen <1 ppm): 100.0%
Total impurity content as a % of initial weight of tigecycline [2]: 0.907%
Total tigecycline epimer content as a % of initial weight of tigecycline [2]: 0.83%
Percentage of tigecycline remaining (pH 3.0, 8 h, in the presence of air): 100%
Total impurity content as a % of initial weight of tigecycline (pH 3, 8 h, oxygen <1 ppm): 0.628%
Total tigecycline epimer content as a % of initial weight of tigecycline (pH 3, 8 h, oxygen <1 ppm): 0.485%
Percentage of tigecycline remaining (pH 3.0, 8 h, oxygen <1 ppm): 99.55%
Total impurity content as a % of initial weight of tigecycline [3]: 2.564%
Total tigecycline epimer content as a % of initial weight of tigecycline [3]: 2.27%
Percentage of tigecycline remaining (pH 3.0, 24 h, in the presence of air): 98%
Total impurity content as a % of initial weight of tigecycline (pH 3, 24 h, oxygen <1 ppm): 2.391%
Total tigecycline epimer content as a % of initial weight of tigecycline (pH 3, 24 h, oxygen <1 ppm): 2.267%
Percentage of tigecycline remaining (pH 3.0, 24 h, oxygen <1 ppm): 98.08%
Total impurity content as a % of initial weight of tigecycline [4]: 8.3%
Total tigecycline epimer content as a % of initial weight of tigecycline [4]: 7.58%
Percentage of tigecycline remaining (pH 3.0, 72 h, in the presence of air): 93%
Total impurity content as a % of initial weight of tigecycline (pH 3, 72 h, oxygen <1 ppm): 7.853%
Total tigecycline epimer content as a % of initial weight of tigecycline (pH 3, 72 h, oxygen <1 ppm): 7.651%
Percentage of tigecycline remaining (pH 3.0, 72 h, oxygen <1 ppm): 92.24%
Percentage of tigecycline remaining [5]: 100%
Total impurity content as a % of initial weight of tigecycline [5]: 0.35%
Total tigecycline epimer content as a % of initial weight of tigecycline [5]: 0.18%
Percentage of tigecycline remaining (pH 3.5, 0 h, oxygen <1 ppm): 100.0%
Total impurity content as a % of initial weight of tigecycline (pH 3.5, 0 h, oxygen <1 ppm): 0.245%
Total tigecycline epimer content as a % of initial weight of tigecycline (pH 3.5, 0 h, oxygen <1 ppm): 0.133%
Percentage of tigecycline remaining [6]: 100%
Total impurity content as a % of initial weight of tigecycline [6]: 0.737%
Total tigecycline epimer content as a % of initial weight of tigecycline [6]: 0.47%
Percentage of tigecycline remaining (pH 3.5, 8 h, oxygen <1 ppm): 100.19%
Total impurity content as a % of initial weight of tigecycline (pH 3.5, 8 h, oxygen <1 ppm): 0.559%
Total tigecycline epimer content as a % of initial weight of tigecycline (pH 3.5, 8 h, oxygen <1 ppm): 0.383%
Percentage of tigecycline remaining [7]: 100%
Total impurity content as a % of initial weight of tigecycline [7]: 1.727%
Total tigecycline epimer content as a % of initial weight of tigecycline [7]: 1.45%
Percentage of tigecycline remaining (pH 3.5, 24 h, oxygen <1 ppm): 99.26%
Total impurity content as a % of initial weight of tigecycline (pH 3.5, 24 h, oxygen <1 ppm): 1.478%
Total tigecycline epimer content as a % of initial weight of tigecycline (pH 3.5, 24 h, oxygen <1 ppm): 1.351%
Percentage of tigecycline remaining [8]: 95%
Total impurity content as a % of initial weight of tigecycline [8]: 5.521%
Total tigecycline epimer content as a % of initial weight of tigecycline [8]: 4.83%
Percentage of tigecycline remaining (pH 3.5, 72 h, oxygen <1 ppm): 96.03%
Total impurity content as a % of initial weight of tigecycline (pH 3.5, 72 h, oxygen <1 ppm): 4.913%
Total tigecycline epimer content as a % of initial weight of tigecycline (pH 3.5, 72 h, oxygen <1 ppm): 4.671%
Percentage of tigecycline remaining [9]: 100%
Total impurity content as a % of initial weight of tigecycline [9]: 0.32%
Total tigecycline epimer content as a % of initial weight of tigecycline [9]: 0.189%
Percentage of tigecycline remaining [10]: 100%
Total impurity content as a % of initial weight of tigecycline [10]: 1.06%
Total tigecycline epimer content as a % of initial weight of tigecycline [10]: 0.90%
Percentage of tigecycline remaining [11]: 98%
Total impurity content as a % of initial weight of tigecycline [11]: 3.129%
Total tigecycline epimer content as a % of initial weight of tigecycline [11]: 2.90%
Percentage of tigecycline remaining [12]: 100%
Total impurity content as a % of initial weight of tigecycline [12]: 0.30%
Total tigecycline epimer content as a % of initial weight of tigecycline [12]: 0.16%
Percentage of tigecycline remaining (pH 4.5, 0 h, oxygen <1 ppm): 100.0%
Total impurity content as a % of initial weight of tigecycline (pH 4.5, 0 h, oxygen <1 ppm): 0.232%
Total tigecycline epimer content as a % of initial weight of tigecycline (pH 4.5, 0 h, oxygen <1 ppm): 0.116%
Percentage of tigecycline remaining [13]: 100%
Total impurity content as a % of initial weight of tigecycline [13]: 0.483%
Total tigecycline epimer content as a % of initial weight of tigecycline [13]: 0.30%
Percentage of tigecycline remaining (pH 4.5, 8 h, oxygen <1 ppm): 99.69%
Total impurity content as a % of initial weight of tigecycline (pH 4.5, 8 h, oxygen <1 ppm): 0.368%
Total tigecycline epimer content as a % of initial weight of tigecycline (pH 4.5, 8 h, oxygen <1 ppm): 0.233%
Percentage of tigecycline remaining [14]: 99%
Total impurity content as a % of initial weight of tigecycline [14]: 0.75%
Total tigecycline epimer content as a % of initial weight of tigecycline [14]: 0.65%
Percentage of tigecycline remaining (pH 4.5, 24 h, oxygen <1 ppm): 99.72%
